From PMC3325286, “Structural and Functional Diversity of Acidic Scorpion Potassium Channel Toxins” (PLoS ONE, 2012)
Like-named read-outs stand apart in the source and are kept apart here. Positions of bridges follow the written chain, without caps; N, C: chain ends. Residues, ends and D or L forms follow the SMILES beside them. No end group written: not given here.

Legend:
KCNQ1 channel [1] = target: T1, KCNQ1 channel (Homo sapiens, UniProt P15382+P51787); assay: cell-based; details: for inhibition at 10 µM: HEK293, read-out: Inhibition of KCNQ1 channel current; for inhibition at 1 µM: HEK293, read-out: Inhibition of KCNQ1 channel current, ImKTx104 and mutants
T1 sequence (P51787 whole entry, looked up): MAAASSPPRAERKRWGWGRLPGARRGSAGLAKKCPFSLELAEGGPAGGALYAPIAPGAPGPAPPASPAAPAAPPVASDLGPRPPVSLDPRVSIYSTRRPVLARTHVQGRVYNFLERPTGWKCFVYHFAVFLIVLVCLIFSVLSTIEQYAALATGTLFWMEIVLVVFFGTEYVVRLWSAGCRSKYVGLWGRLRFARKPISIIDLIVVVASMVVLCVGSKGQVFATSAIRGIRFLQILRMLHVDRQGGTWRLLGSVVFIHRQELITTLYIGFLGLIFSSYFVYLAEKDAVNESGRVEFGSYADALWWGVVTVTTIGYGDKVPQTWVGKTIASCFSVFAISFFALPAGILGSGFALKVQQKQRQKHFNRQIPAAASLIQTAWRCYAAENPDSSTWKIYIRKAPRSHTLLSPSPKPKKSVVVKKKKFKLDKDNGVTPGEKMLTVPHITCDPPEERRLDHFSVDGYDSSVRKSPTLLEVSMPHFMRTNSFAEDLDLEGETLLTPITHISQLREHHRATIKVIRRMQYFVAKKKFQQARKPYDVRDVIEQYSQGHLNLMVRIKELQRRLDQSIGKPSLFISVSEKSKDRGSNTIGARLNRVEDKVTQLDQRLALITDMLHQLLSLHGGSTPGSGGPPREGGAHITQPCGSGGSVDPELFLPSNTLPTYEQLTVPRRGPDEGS

Kv1.x channel = details: cited from earlier work
KCNQ1 channel [2] = target: T1, KCNQ1 channel
Kv1.3 channel = assay: Patch-clamp inhibition of Kv1.3 channel current in transfected HEK293 cells; format: cell-based
BKCa channel = assay: Patch-clamp inhibition of BKCa channel current in transfected HEK293 cells; format: cell-based; details: 1 µM concentration; n>3
SKCa channel = assay: Patch-clamp inhibition of SKCa channel current in transfected HEK293 cells; format: cell-based; details: 1 µM concentration; n>3
TRPV1 channel = assay: Patch-clamp inhibition of TRPV1 channel current in transfected HEK293 cells; format: cell-based; details: 1 µM concentration; n>3
Kv1.1 channel = assay: Patch-clamp inhibition of Kv1.1 channel current in transfected HEK293 cells; format: cell-based; details: 1 µM ImKTx104 (Fig. S2); n>3
Kv1.2 channel = assay: Patch-clamp inhibition of Kv1.2 channel current in transfected HEK293 cells; format: cell-based; details: 1 µM ImKTx104 (Fig. S2); n>3

Row | Compound | inhibition at 10 µM (KCNQ1 channel [1]) | inhibition at 1 µM (KCNQ1 channel [1]) | Effect on Kv1.3 channel (in words) (Kv1.3 channel) | Effect on KCNQ1 channel (in words) (KCNQ1 channel [2]; 10 µM concentration) | also measured
1 | CC[C@H](C)[C@@H]1NC(=O)[C@H](C(C)C)NC(=O)[C@@H]2CSSC[C@@H]3NC(=O)[C@H](CCCCN)NC(=O)[C@H](CCC(N)=O)NC(=O)[C@@H]4CCCN4C(=O)CNC(=O)[C@H](CC(=O)O)NC(=O)[C@H](CSSC[C@H](NC(=O)[C@H](CO)NC(=O)[C@H](CCC(=O)O)NC(=O)[C@H](CCCCN)NC(=O)[C@@H]4CCCN4C(=O)[C@H](CCC(=O)O)NC(=O)[C@H](CCC(=O)O)NC(=O)[C@@H](N)CC(=O)O)C(=O)N[C@@H](CO)C(=O)N[C@@H](CC(=O)O)C(=O)N[C@@H](CCC(=O)O)C(=O)N[C@@H](CCSC)C(=O)N2)NC(=O)[C@H](C(C)C)NC(=O)CNC(=O)[C@H]([C@@H](C)O)NC(=O)[C@H](CO)NC(=O)[C@H](Cc2ccc(O)cc2)NC(=O)[C@H](CCC(=O)O)NC(=O)[C@H](CCC(=O)O)NC(=O)CNC(=O)[C@H](CCCCN)NC(=O)[C@H](CSSC[C@@H](C(=O)N[C@@H](CO)C(=O)N[C@@H](CC(=O)O)C(=O)O)NC(=O)[C@H](CCCCN)NC3=O)NC(=O)[C@H](Cc2ccc(O)cc2)NC1=O [PbTx1, reference compound] (H-DEEPKESCSDEMCVIYCKGEEYSTGVCDGPQKCKCSD-OH; disulfide 8-27, 13-33, 17-35) | 21.4% |  |  |  | Block of Kv1.x channel (in words) (Kv1.x channel): low activity (micromolar range); Effect on KCNQ1 channel (in words) (KCNQ1 channel [2]): only weak inhibitors
2 | CC[C@H](C)[C@@H]1NC(=O)[C@H]([C@@H](C)O)NC(=O)[C@H](CC(=O)O)NC(=O)[C@H](Cc2ccc(O)cc2)NC(=O)[C@@H]2CSSC[C@@H](C(=O)N[C@@H](CCSC)C(=O)O)NC(=O)[C@H](CCCCN)NC(=O)[C@@H]3CSSC[C@H](NC(=O)[C@H](CC(=O)O)NC(=O)[C@H](CCC(=O)O)NC(=O)[C@H](Cc4c[nH]cn4)NC(=O)[C@H]([C@@H](C)O)NC(=O)[C@H](C(C)C)NC(=O)[C@@H](NC(=O)[C@H](C)N)CSSC[C@H](NC(=O)[C@H]([C@@H](C)O)NC(=O)CNC1=O)C(=O)N[C@@H](C(C)C)C(=O)N[C@@H](CC(=O)O)C(=O)NCC(=O)N[C@@H](C)C(=O)N3)C(=O)N[C@@H]([C@@H](C)O)C(=O)N[C@@H](CC(C)C)C(=O)N[C@@H](CC(C)C)C(=O)N2 [ImKTX104-K23A] (H-ACVTHEDCTLLCYDTIGTCVDGACKCM-OH; disulfide 2-19, 8-24, 12-26) |  | 15.5% |  |  | 
3 | CC[C@H](C)[C@@H]1NC(=O)[C@H]([C@@H](C)O)NC(=O)[C@H](CC(=O)O)NC(=O)[C@H](Cc2ccc(O)cc2)NC(=O)[C@@H]2CSSC[C@@H](C(=O)N[C@@H](CCSC)C(=O)O)NC(=O)[C@H](C)NC(=O)[C@@H]3CSSC[C@H](NC(=O)[C@H](CC(=O)O)NC(=O)[C@H](CCC(=O)O)NC(=O)[C@H](Cc4c[nH]cn4)NC(=O)[C@H]([C@@H](C)O)NC(=O)[C@H](C(C)C)NC(=O)[C@@H](NC(=O)[C@H](C)N)CSSC[C@H](NC(=O)[C@H]([C@@H](C)O)NC(=O)CNC1=O)C(=O)N[C@@H](C(C)C)C(=O)N[C@@H](CC(=O)O)C(=O)NCC(=O)N[C@@H](CCCCN)C(=O)N3)C(=O)N[C@@H]([C@@H](C)O)C(=O)N[C@@H](CC(C)C)C(=O)N[C@@H](CC(C)C)C(=O)N2 [ImKTX104-K25A] (H-ACVTHEDCTLLCYDTIGTCVDGKCACM-OH; disulfide 2-19, 8-24, 12-26) |  | 21.4% |  |  | 
4 | CC[C@H](C)[C@@H]1NC(=O)[C@H](C)NC(=O)[C@H](CCC(=O)O)NC(=O)[C@H](CO)NC(=O)[C@H]([C@@H](C)CC)NC(=O)[C@@H]2CCCN2C(=O)[C@@H](NC(=O)[C@H](CC(=O)O)NC(=O)CNC(=O)[C@@H](N)CCC(=O)O)CSSC[C@@H]2NC(=O)[C@H](C(C)C)NC(=O)[C@H](CCC(=O)O)NC(=O)[C@H](C(C)C)NC(=O)[C@H](CCCCN)NC(=O)[C@H](CCC(=O)O)NC(=O)[C@H](CCCCN)NC(=O)[C@@H]3CSSC[C@@H](C(=O)N[C@@H](CO)C(=O)NCC(=O)O)NC(=O)[C@H](CCCCN)NC(=O)[C@H](CSSC[C@H](NC(=O)[C@H](CCCCN)NC1=O)C(=O)N[C@@H](C(C)C)C(=O)N[C@@H](CCC(=O)O)C(=O)N[C@@H](CCCCN)C(=O)N3)NC(=O)[C@H](C(C)C)NC(=O)CNC(=O)[C@@H]1CCCN1C(=O)[C@H](CCC(=O)O)NC2=O [LmKTx2] (H-EGDCPISEAIKCVEKCKEKVEVCEPGVCKCSG-OH; disulfide 4-23, 12-28, 16-30) | 27.7% |  | minor effect | only weakly inhibited | 
5 | CC[C@H](C)[C@@H]1NC(=O)[C@@H](NC(=O)[C@H](C)NC(=O)[C@H](CC(N)=O)NC(=O)CN)CSSC[C@@H](C(=O)N[C@@H](CC(=O)O)C(=O)N[C@@H](CCCCN)C(=O)O)NC(=O)[C@H](C)NC(=O)[C@H](CCCCN)NC(=O)[C@H](CC(=O)O)NC(=O)[C@@H]2CSSC[C@H](NC(=O)[C@H](C(C)C)NC(=O)[C@H](CCC(=O)O)NC1=O)C(=O)N[C@@H](CC(C)C)C(=O)N[C@@H](CCC(N)=O)C(=O)N[C@@H](Cc1c[nH]cn1)C(=O)N[C@@H]([C@@H](C)O)C(=O)NCC(=O)N[C@@H](CC(N)=O)C(=O)N1CCC[C@H]1C(=O)N[C@@H](C)C(=O)N[C@@H](CCC(=O)O)C(=O)N2 [HeTx203] (H-GNACIEVCLQHTGNPAECDKACDK-OH; disulfide 4-22, 8-18) | 17.8% |  |  | only weakly inhibited | 
6 | CC[C@H](C)[C@@H]1NC(=O)[C@H]([C@@H](C)O)NC(=O)[C@H](C)NC(=O)[C@H](Cc2ccc(O)cc2)NC(=O)[C@@H]2CSSC[C@@H](C(=O)N[C@@H](CCSC)C(=O)O)NC(=O)[C@H](CCCCN)NC(=O)[C@@H]3CSSC[C@H](NC(=O)[C@H](CC(=O)O)NC(=O)[C@H](CCC(=O)O)NC(=O)[C@H](Cc4c[nH]cn4)NC(=O)[C@H]([C@@H](C)O)NC(=O)[C@H](C(C)C)NC(=O)[C@@H](NC(=O)[C@H](C)N)CSSC[C@H](NC(=O)[C@H]([C@@H](C)O)NC(=O)CNC1=O)C(=O)N[C@@H](C(C)C)C(=O)N[C@@H](CC(=O)O)C(=O)NCC(=O)N[C@@H](CCCCN)C(=O)N3)C(=O)N[C@@H]([C@@H](C)O)C(=O)N[C@@H](CC(C)C)C(=O)N[C@@H](CC(C)C)C(=O)N2 [ImKTX104-D14A] (H-ACVTHEDCTLLCYATIGTCVDGKCKCM-OH; disulfide 2-19, 8-24, 12-26) |  | 25.6% |  |  | 
7 | EDKLKCTKTDDCAKYCSQFTDVHPACLGGYCECLRWEGGISS (disulfide 6-26, 12-31, 16-33) [StKTx23] | 4.21% |  | effectively blocked | did not inhibit | 
8 | CC[C@H](C)[C@@H]1NC(=O)[C@@H](NC(=O)[C@H](C)NC(=O)[C@H](CC(N)=O)NC(=O)CN)CSSC[C@@H](C(=O)N[C@@H](CC(=O)O)C(=O)N[C@@H](CCCCN)C(=O)O)NC(=O)[C@@H]2CCCN2C(=O)[C@H](CCCCN)NC(=O)[C@H](CC(=O)O)NC(=O)[C@@H]2CSSC[C@H](NC(=O)[C@H](C(C)C)NC(=O)[C@H](CCC(=O)O)NC1=O)C(=O)N[C@@H](CC(C)C)C(=O)N[C@@H](CCC(N)=O)C(=O)N[C@@H](Cc1c[nH]cn1)C(=O)N[C@@H]([C@@H](C)O)C(=O)NCC(=O)N[C@@H](CC(N)=O)C(=O)N1CCC[C@H]1C(=O)N[C@@H](C)C(=O)N[C@@H](CCC(=O)O)C(=O)N2 [HeTx204] (H-GNACIEVCLQHTGNPAECDKPCDK-OH; disulfide 4-22, 8-18) | 44.9% |  | effectively blocked | effectively blocked | Effect on BKCa channel (in words) (BKCa channel): negligible effects; Washout of toxin from KCNQ1 channel (in words) (KCNQ1 channel [2]; 10 µM): could not be removed; Effect on SKCa channel (in words) (SKCa channel): negligible effects; Effect on TRPV1 channel (in words) (TRPV1 channel): negligible effects
9 | CSCC[C@@H]1NC(=O)[C@@H]2CCCN2C(=O)[C@@H]2CSSC[C@@H]3NC(=O)[C@H](C(C)C)NC(=O)CNC(=O)[C@H](CC(=O)O)NC(=O)[C@H](CC(=O)O)NC(=O)[C@H](CSSC[C@H](NC(=O)CNC(=O)[C@@H](N)C(C)C)C(=O)N[C@@H](CCC(=O)O)C(=O)N[C@@H](CCC(=O)O)C(=O)N2)NC(=O)[C@H]([C@@H](C)O)NC(=O)[C@@H]2CCCN2C(=O)[C@H](CCCCN)NC(=O)[C@H](C)NC(=O)[C@H](CC(N)=O)NC(=O)[C@H](CCCCN)NC(=O)CNC(=O)[C@H](CCCCN)NC(=O)[C@H](CSSC[C@@H](C(=O)N[C@@H](CC(N)=O)C(=O)N[C@H](C(=O)O)C(C)C)NC(=O)[C@H](CC(N)=O)NC3=O)NC(=O)[C@H](Cc2c[nH]cn2)NC1=O [BmP02, reference compound] (H-VGCEECPMHCKGKNAKPTCDDGVCNCNV-OH; disulfide 3-19, 6-24, 10-26) | 23.3% |  |  | only weak inhibitors | 
10 | CC[C@H](C)[C@@H]1NC(=O)[C@H]([C@@H](C)O)NC(=O)[C@H](CC(=O)O)NC(=O)[C@H](Cc2ccc(O)cc2)NC(=O)[C@@H]2CSSC[C@@H](C(=O)N[C@@H](CCSC)C(=O)O)NC(=O)[C@H](CCCCN)NC(=O)[C@@H]3CSSC[C@H](NC(=O)[C@H](CC(=O)O)NC(=O)[C@H](CCC(=O)O)NC(=O)[C@H](Cc4c[nH]cn4)NC(=O)[C@H]([C@@H](C)O)NC(=O)[C@H](C(C)C)NC(=O)[C@@H](NC(=O)[C@H](C)N)CSSC[C@H](NC(=O)[C@H]([C@@H](C)O)NC(=O)CNC1=O)C(=O)N[C@@H](C(C)C)C(=O)N[C@@H](CC(=O)O)C(=O)NCC(=O)N[C@@H](CCCCN)C(=O)N3)C(=O)N[C@@H]([C@@H](C)O)C(=O)N[C@@H](CC(C)C)C(=O)N[C@@H](CC(C)C)C(=O)N2 [ImKTx104] (H-ACVTHEDCTLLCYDTIGTCVDGKCKCM-OH; disulfide 2-19, 8-24, 12-26) | 41.7% | 27.5% | minor effect | effectively blocked | Effect on BKCa channel (in words) (BKCa channel): negligible effects; τoff (time constant of washing off process), KCNQ1 channel current (KCNQ1 channel [2]; measured at 10 µM): 11.73 s; τon (time constant of binding process), KCNQ1 channel current (KCNQ1 channel [2]; measured at 10 µM): 81.32 s; Effect on SKCa channel (in words) (SKCa channel): negligible effects; Effect on Kv1.1 channel (in words) (Kv1.1 channel): no effect; Effect on TRPV1 channel (in words) (TRPV1 channel): negligible effects; Effect on Kv1.2 channel (in words) (Kv1.2 channel): no effect
